These are literature values, as cited in US5905084A, “5-HTIF -agonists effective in treating migraine” (priority 1997, dated 1999).

The structures appear in SMILES notation.

The test system of data set [1] is exploratory behavior in arthritic animals. The settings on record: Larsen and Arnt (1985).
The subject of the next data set is neurogenic inflammation. The settings on record: Neurology, 43(suppl. 3), S16-S20 (1993).

Regarding `CN(C)CCCC1(c2ccc(F)cc2)OCc2cc(C#N)ccc21` (centres unmarked) [citalopram], the exploratory behavior result in data set [1] is recorded as “improve exploratory behavior”. For `CNS(=O)(=O)Cc1ccc2[nH]cc(CCN(C)C)c2c1.O=C(O)CCC(=O)O` [Compound I, 3-[2-(dimethylamino)ethyl]-N-methyl-1H-indole-5-methanesulfonamide butane-1,4-dioate (1:1)], in the data set with neurogenic inflammation, the neurogenic inflammation blocked result is listed as “blocked”.
